Results reported in the NIST ThermoML archive (doi:10.1021/je800193a).

Assay: excess molar enthalpy (molar enthalpy of mixing); xn = mol fraction of the nth substance listed
Conditions: 101.3 kPa, Liquid, Flow calorimetry

CC(=O)c1ccccc1 [acetophenone] + CCCCCCC
excess molar enthalpy [kJ/mol]
Conditions | 298.2 K | 313.2 K | 328.2 K | 338.2 K | 348.2 K
x1 = 0.0999 | 0.723 | 0.742 | 0.765 | 0.768 | 0.77
x1 = 0.2002 | 1.13 | 1.19 | 1.25 | 1.26 | 1.26
x1 = 0.3005 | 1.31 | 1.43 | 1.51 | 1.54 | 1.54
x1 = 0.3498 | 1.35 | 1.48 | 1.58 | 1.62 | 1.63
x1 = 0.4007 | 1.37 | 1.52 | 1.62 | 1.67 | 1.67
x1 = 0.4504 | 1.37 | 1.52 | 1.64 | 1.68 | 1.69
x1 = 0.5003 | 1.35 | 1.5 | 1.62 | 1.67 | 1.68
x1 = 0.5504 | 1.31 | 1.46 | 1.58 | 1.63 | 1.63
x1 = 0.6006 | 1.26 | 1.4 | 1.52 | 1.56 | 1.57
x1 = 0.6496 | 1.19 | 1.32 | 1.43 | 1.47 | 1.48
x1 = 0.6998 | 1.1 | 1.22 | 1.32 | 1.35 | 1.36
x1 = 0.8001 | 0.869 | 0.939 | 1.01 | 1.03 | 1.03
x1 = 0.8999 | 0.506 | 0.524 | 0.566 | 0.571 | 0.579

CC(=O)c1ccccc1 [acetophenone] + CCCCCO
excess molar enthalpy [kJ/mol]
Conditions | 298.2 K | 313.2 K | 328.2 K | 338.2 K | 348.2 K
x1 = 0.1003 | 0.631 | 0.729 | 0.778 | 0.797 | 0.802
x1 = 0.1998 | 1.01 | 1.19 | 1.3 | 1.36 | 1.37
x1 = 0.2998 | 1.25 | 1.49 | 1.65 | 1.72 | 1.74
x1 = 0.3497 | 1.32 | 1.58 | 1.76 | 1.84 | 1.87
x1 = 0.4001 | 1.38 | 1.66 | 1.84 | 1.93 | 1.96
x1 = 0.4496 | 1.42 | 1.7 | 1.89 | 1.98 | 2.01
x1 = 0.4994 | 1.43 | 1.72 | 1.91 | 2 | 2.02
x1 = 0.5497 | 1.43 | 1.72 | 1.9 | 1.98 | 2
x1 = 0.6004 | 1.41 | 1.68 | 1.85 | 1.92 | 1.94
x1 = 0.6501 | 1.36 | 1.61 | 1.77 | 1.83 | 1.84
x1 = 0.7003 | 1.29 | 1.52 | 1.65 | 1.71 | 1.72
x1 = 0.8004 | 1.05 | 1.22 | 1.28 | 1.32 | 1.33
x1 = 0.8995 | 0.653 | 0.73 | 0.74 | 0.76 | 0.77

CC(=O)c1ccccc1 [acetophenone] + CCCCO
excess molar enthalpy [kJ/mol]
Conditions | 298.2 K | 313.2 K | 328.2 K | 338.2 K | 348.2 K
x1 = 0.0996 | 0.624 | 0.718 | 0.784 | 0.809 | 0.824
x1 = 0.2005 | 1.01 | 1.18 | 1.32 | 1.36 | 1.4
x1 = 0.3001 | 1.25 | 1.49 | 1.65 | 1.73 | 1.77
x1 = 0.3501 | 1.33 | 1.59 | 1.76 | 1.84 | 1.89
x1 = 0.4002 | 1.38 | 1.66 | 1.84 | 1.92 | 1.97
x1 = 0.4504 | 1.42 | 1.7 | 1.89 | 1.97 | 2.02
x1 = 0.5005 | 1.44 | 1.72 | 1.91 | 1.98 | 2.03
x1 = 0.5506 | 1.44 | 1.7 | 1.89 | 1.96 | 2
x1 = 0.6006 | 1.41 | 1.67 | 1.84 | 1.9 | 1.94
x1 = 0.6504 | 1.36 | 1.6 | 1.75 | 1.81 | 1.84
x1 = 0.7001 | 1.29 | 1.5 | 1.64 | 1.67 | 1.7
x1 = 0.8 | 1.06 | 1.19 | 1.28 | 1.3 | 1.32
x1 = 0.9001 | 0.646 | 0.709 | 0.738 | 0.751 | 0.771

CC(=O)c1ccccc1 [acetophenone] + CCOC(C)=O
excess molar enthalpy [kJ/mol]
Conditions | 298.2 K | 313.2 K | 328.2 K
x1 = 0.1 | -0.0122 | -0.0119 | -0.0117
x1 = 0.2004 | -0.0213 | -0.0207 | -0.0205
x1 = 0.2999 | -0.0276 | -0.0266 | -0.0262
x1 = 0.3501 | -0.0296 | -0.0284 | -0.0282
x1 = 0.4002 | -0.0309 | -0.0294 | -0.029
x1 = 0.4503 | -0.0316 | -0.0299 | -0.0292
x1 = 0.5002 | -0.0316 | -0.0297 | -0.0288
x1 = 0.5997 | -0.03 | -0.0279 | -0.0267
x1 = 0.7005 | -0.0263 | -0.024 | -0.0226
x1 = 0.8004 | -0.0202 | -0.018 | -0.0164
x1 = 0.9003 | -0.0103 | -0.0098 | -0.0082
